Patent publication US6673364B1, “Liposome having an exchangeable component” (The University of British Columbia, priority 1995, dated 2004)

Tests used:
[1] = 31P-NMR phase preference of equimolar DOPE:cholesterol mixtures with bilayer stabilizing component (BSC); format: physicochemical
Protocol: Lipid components were mixed in 1-2 ml of benzene:methanol (95:5, v/v) and then lyophilized for a minimum of 5 hours at a pressure of <60 millitorr using a Virtis lyophilizer equipped with a liquid N2 trap. Multilamellar vesicles (MLVs) were prepared by hydrating the dry lipid mixtures in 150 mM NaCl, buffered with 10 mM Hepes-NaOH, pH 7.4 (Hepes-buffered saline, HBS). Mixtures were vortexed to assist hydration. To produce large unilamellar vesicles (LUVs), MLVs were first frozen in liquid nitrogen and then thawed at 30° C. five times. LUVs were produced by extrusion of the frozen and thawed MLVs ten times through 2 stacked polycarbonate filters of 100 nm pore size at 30° C. and pressures of 200-500 psi (Hope, et al., Biochim. Biophys. Acta, 812:55-65 (1985)).
^31P-NMR spectra were obtained using a temperature controlled Bruker MSL200 spectrometer operating at 81 MHz. Free induction decays were accumulated for 2000 transients using a 4 μs, 90° pulse, 1 sec. interpulse delay, 20 KHz sweep width and Waltz decoupling. A 50 Hz line broadening was applied to the data prior to Fourier transformation. Samples were allowed to equilibrate at the indicated temperature for 30 minutes prior to data accumulation. Lipid concentrations of 30-70 mM were used.

[2] = Lipid mixing (FRET) assay, NaCl-induced fusion of DOPE:DODAC liposomes; details: DOPE:DODAC:PEG-lipid 83:15:2, 300 mM NaCl, POPC sink
Protocol: (§1) Lipid mixtures were prepared as described for NMR measurements. The resultant multilamellar vesicles (MLV) were frozen in liquid nitrogen and then thawed at 30° C. five times. Large unilamellar vesicles (LUV) were produced by extrusion of the frozen and thawed MLV ten times through 2 stacked polycarbonate filters of […] pore size at 30° C. and pressures of 200-500 psi (Hope, et al., Biochim. Biophys. Acta 812:55-65 (1985)).
Lipid mixing was measured by a modification of the fluorescence resonance energy transfer (FRET) assay of Struck, et al. (Biochemistry 20:4093-4099 (1981)). […] Fluorescence emission intensity was measured at 517 nm with excitation at 465 nm both before and after the addition of Triton X-100 (final concentration of 0. 5% or 1% when POPC sink was used). Data is presented as either uncorrected fluorescence intensity for short term assays (<1 hour) or as percentage fusion. […] Maximum fusion was determined using mock fused vesicles containing 0.125 mol % of each fluorescent probe. The percentage fusion was calculated as: [formula]
where F(t)=fluorescence intensity at time t; Fo=fluorescence intensity at zero time; FT=fluorescence intensity in the presence of Triton X-100. […]

[3] = Lipid mixing (FRET) assay, Ca2+-induced fusion of PE:PS LUVs
Protocol: as §1
Lipid mixing was measured by a modification of the fluorescence resonance energy transfer (FRET) assay of Struck, et al. (Biochemistry 20:4093-4099 (1981)). LUVs were prepared containing the fluorescent lipids, N-(7-nitro-2-1,3-benzoxadiazol-4-yl)-dioleoylphosphatidylethanolamine (NBD-PE) and N-(lissamine rhodamine B sulfonyl)-dipalmitoylphosphatidylethanolamine (Rh-PE) at 0.5 mol %. LUVs (50-60 μM) and a three-fold excess of unlabelled target vesicles were mixed in the fluorimeter at 37° C. for short term assays (≦1 hour), or in sealed cuvettes in a dark water bath at 37° C. for longer assays. For measurements of fusion after PEG-lipid transfer, an excess of liposomes prepared from 1-palmitoyl-2-oleoyl-phosphatidylcholine (POPC) was added as a sink for the PEG-lipid. Fluorescence emission intensity was measured at 517 nm with excitation at 465 nm both before and after the addition of Triton X-100 (final concentration of 0. 5% or 1% when POPC sink was used). Data is presented as either uncorrected fluorescence intensity for short term assays (<1 hour) or as percentage fusion. Light scattering controls were performed by replacing LUVs labelled with 0.5 mol % probes with unlabelled vesicles. Maximum fusion was determined using mock fused vesicles containing 0.125 mol % of each fluorescent probe. The percentage fusion was calculated as: [formula]
where F(t)=fluorescence intensity at time t; Fo=fluorescence intensity at zero time; FT=fluorescence intensity in the presence of Triton X-100. M and L represent the same measurements for the mock fused control and the light scattering control respectively.

[4] = PE:PS LUVs, 2 mol % PE-PEG2000, POPC sink

Substance: 1-O-methyl-(poly(ethoxy)-O-succinyl-O-(egg)ceramide [egg ceramide-PEG2000]
- phase preference (31P-NMR) ([1]; DOPE:cholesterol:BSC 1:1:0.1, 0 to 60° C.): both bilayer and HII phase lipid are in evidence at most temperatures
- phase preference (31P-NMR) ([1]; equimolar DOPE:cholesterol, BSC 20 mol % of phospholipid (1:1:0.25)): exclusively bilayer up to 60 °C
- time for 50% maximal fusion ([2]; 37° C.): over 20 hr

Substance: PEG2000 conjugated to distearoylphosphatidylethanolamine [DSPE-PEG2000]
- level of fusion after 24 hours [3, 4]: 20 % of maximum

Substance: PEG2000 conjugated to dipalmitoylphosphatidylethanolamine [DPPE-PEG2000]
- time at which fusion was essentially complete [3, 4]: 24 h
- implied decrease in rate of transfer (acyl chains 14 to 16 carbons) ([3]; relative to DMPE-PEG2000): 30-40 fold

Substance: PEG2000 conjugated to dimyristoylphosphatidylethanolamine [DMPE-PEG2000]
- time delay (lag phase) prior to fusion ([3]; 2, 3, 5 or 10 mol % PEG-lipid, 36fold excess POPC liposomes): increase in the time delay prior to fusion with increasing PEG-lipid concentration
- concentration sufficient to eliminate (completely inhibit) Ca2+-induced fusion ([3]; PE:PS (1:1) LUVs, 5 mM Ca2+, 37° C.): 2 mol %
- time at which fusion was essentially complete [3, 4]: 0.667 h
- extent of fusion at 21 hr [2]: < 20 % of maximum
